These results are taken from PMC12621043, “Un-LOK-ing a New Approach for Conformational Selective Targeting of STK10 (LOK)” (ACS Medicinal Chemistry Letters, 2025).

Common to all, as to assay: DSF Tm panel
What all share (assay type): binding
Common to all, as to settings: 10 μM compound

The target of one assay is T1, TOPKA (Homo sapiens, UniProt Q96KB5).
T1 construct: purchased in-house DSF kinase panel (SGC-style construct names; the trailing letter is the construct ID)
T1 sequence (Q96KB5 1-322): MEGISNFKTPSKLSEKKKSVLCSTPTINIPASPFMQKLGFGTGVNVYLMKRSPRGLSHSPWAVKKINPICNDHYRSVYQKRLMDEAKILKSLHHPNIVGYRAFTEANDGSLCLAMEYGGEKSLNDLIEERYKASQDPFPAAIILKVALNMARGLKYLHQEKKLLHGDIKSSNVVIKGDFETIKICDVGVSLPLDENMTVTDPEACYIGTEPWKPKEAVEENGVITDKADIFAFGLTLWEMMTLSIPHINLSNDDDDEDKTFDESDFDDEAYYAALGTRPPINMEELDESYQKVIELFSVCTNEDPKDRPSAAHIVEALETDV

Another assay deals with T2, PDK4A (Homo sapiens, UniProt Q16654).
T2 construct: purchased in-house DSF kinase panel (SGC-style construct names; the trailing letter is the construct ID)
T2 sequence (Q16654 whole entry): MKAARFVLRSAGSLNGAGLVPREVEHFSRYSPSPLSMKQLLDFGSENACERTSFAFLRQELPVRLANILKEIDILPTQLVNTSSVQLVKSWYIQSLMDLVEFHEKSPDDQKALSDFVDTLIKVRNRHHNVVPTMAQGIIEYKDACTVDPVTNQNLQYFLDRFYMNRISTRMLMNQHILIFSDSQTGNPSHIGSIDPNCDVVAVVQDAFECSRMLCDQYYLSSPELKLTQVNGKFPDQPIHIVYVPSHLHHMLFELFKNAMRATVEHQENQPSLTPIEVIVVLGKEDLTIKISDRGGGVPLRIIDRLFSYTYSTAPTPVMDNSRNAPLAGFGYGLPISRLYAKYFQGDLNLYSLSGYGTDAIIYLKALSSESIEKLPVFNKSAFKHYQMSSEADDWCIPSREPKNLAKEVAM

A further assay addresses T3, FLT1A (Homo sapiens, UniProt P17948).
T3 construct: purchased in-house DSF kinase panel (SGC-style construct names; the trailing letter is the construct ID)
T3 sequence (P17948 801-1158): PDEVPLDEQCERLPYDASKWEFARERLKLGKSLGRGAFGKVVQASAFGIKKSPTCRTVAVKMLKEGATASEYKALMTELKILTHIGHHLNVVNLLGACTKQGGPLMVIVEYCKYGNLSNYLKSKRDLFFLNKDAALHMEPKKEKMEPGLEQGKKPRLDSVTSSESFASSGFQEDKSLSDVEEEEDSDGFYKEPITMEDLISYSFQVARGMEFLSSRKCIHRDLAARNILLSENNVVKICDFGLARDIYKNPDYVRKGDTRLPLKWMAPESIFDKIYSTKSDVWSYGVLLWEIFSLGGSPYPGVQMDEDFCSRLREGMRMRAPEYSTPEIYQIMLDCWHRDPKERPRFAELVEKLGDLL

The next assay addresses T4, NQO2A (Homo sapiens, UniProt P16083).
T4 construct: purchased in-house DSF kinase panel (SGC-style construct names; the trailing letter is the construct ID)
T4 sequence (P16083 1-231): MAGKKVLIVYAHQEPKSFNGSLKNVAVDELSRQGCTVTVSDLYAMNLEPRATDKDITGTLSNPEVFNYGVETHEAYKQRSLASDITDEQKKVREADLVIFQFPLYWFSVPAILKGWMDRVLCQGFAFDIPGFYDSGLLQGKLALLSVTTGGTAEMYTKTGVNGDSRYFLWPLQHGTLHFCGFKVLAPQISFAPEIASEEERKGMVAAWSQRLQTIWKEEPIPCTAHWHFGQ

In another assay the target is T5, BRPF1B (Homo sapiens, UniProt P55201).
T5 construct: purchased in-house DSF kinase panel (SGC-style construct names; the trailing letter is the construct ID)
T5 sequence (P55201 1-1214): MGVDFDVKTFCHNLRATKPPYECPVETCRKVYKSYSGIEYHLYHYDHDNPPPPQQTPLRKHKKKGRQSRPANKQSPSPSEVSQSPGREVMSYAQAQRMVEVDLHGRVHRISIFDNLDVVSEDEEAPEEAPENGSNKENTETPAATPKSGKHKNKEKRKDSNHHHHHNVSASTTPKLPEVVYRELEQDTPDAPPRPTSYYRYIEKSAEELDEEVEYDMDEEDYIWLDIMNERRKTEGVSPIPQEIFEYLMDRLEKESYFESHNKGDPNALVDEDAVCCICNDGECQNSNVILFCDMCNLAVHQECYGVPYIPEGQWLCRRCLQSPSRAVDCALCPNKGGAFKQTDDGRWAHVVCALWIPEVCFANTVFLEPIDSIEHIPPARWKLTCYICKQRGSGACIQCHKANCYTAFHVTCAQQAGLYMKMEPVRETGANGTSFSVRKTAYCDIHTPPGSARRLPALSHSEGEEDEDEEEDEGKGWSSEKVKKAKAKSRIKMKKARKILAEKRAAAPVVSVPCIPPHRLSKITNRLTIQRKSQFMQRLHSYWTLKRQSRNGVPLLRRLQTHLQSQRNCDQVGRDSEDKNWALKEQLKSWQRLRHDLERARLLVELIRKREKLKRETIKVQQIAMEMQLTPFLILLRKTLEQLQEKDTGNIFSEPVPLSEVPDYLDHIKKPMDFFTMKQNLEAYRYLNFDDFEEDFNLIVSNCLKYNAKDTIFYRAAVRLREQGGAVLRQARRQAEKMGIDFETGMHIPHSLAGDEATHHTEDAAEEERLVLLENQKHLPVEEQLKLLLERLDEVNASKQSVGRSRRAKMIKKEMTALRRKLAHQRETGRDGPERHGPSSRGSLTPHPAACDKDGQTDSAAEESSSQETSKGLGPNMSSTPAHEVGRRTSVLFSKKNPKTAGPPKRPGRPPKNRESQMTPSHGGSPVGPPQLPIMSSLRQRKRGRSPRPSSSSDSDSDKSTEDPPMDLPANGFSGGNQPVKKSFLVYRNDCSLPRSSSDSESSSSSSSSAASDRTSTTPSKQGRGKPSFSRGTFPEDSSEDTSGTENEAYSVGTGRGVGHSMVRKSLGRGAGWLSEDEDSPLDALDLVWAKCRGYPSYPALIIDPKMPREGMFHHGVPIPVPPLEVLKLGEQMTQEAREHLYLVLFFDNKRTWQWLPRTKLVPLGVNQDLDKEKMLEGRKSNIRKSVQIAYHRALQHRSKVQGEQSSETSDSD

`O=C(NCc1ccccc1)Nc1ccc2cc1OCCOCCNc1ccn3ncc-2c3n1` [compound 16]: the ΔTm (commonly the change in melting temperature against a reference sample) at 10 µM on TOPKA is 0.4 °C; on PDK4A, -0.7 °C; at FLT1A, 4.7 °C.

Consider `O=C(NCc1ccccc1Cl)Nc1ccc2cc1OCCOCCNc1ccn3ncc-2c3n1` [compound 17], for which the ΔTm at 10 µM on TOPKA was 0.4 °C; at PDK4A it was 0.8 °C; at FLT1A it was 2.1 °C.

On to `O=C(NCc1cccc(Cl)c1)Nc1ccc2cc1OCCOCCNc1ccn3ncc-2c3n1` [compound 18], for which the results for the shift in melting temperature (ΔTm) at 10 µM on TOPKA, at PDK4A and on FLT1A were 0.5 °C, 1 °C and 3.7 °C, respectively.

Turning to `O=C(NCc1ccc(Cl)cc1)Nc1ccc2cc1OCCOCCNc1ccn3ncc-2c3n1` [compound 19], the ΔTm at 10 µM is 0.2 °C on TOPKA, 0.8 °C at PDK4A and 3.4 °C on FLT1A.

Turning to `O=C(NCc1ccc(Cl)cc1Cl)Nc1ccc2cc1OCCOCCNc1ccn3ncc-2c3n1` [compound 20], the ΔTm at 10 µM at TOPKA turned out to be 1.2 °C; on PDK4A, 1.1 °C; at FLT1A, 1.4 °C.

Regarding `O=C(NCc1ccc(Cl)cc1F)Nc1ccc2cc1OCCOCCNc1ccn3ncc-2c3n1` [compound 21], the ΔTm at 10 µM on TOPKA came to 0.6 °C; on PDK4A, 1.1 °C; at FLT1A it was 2.6 °C.

As to `Cc1cc(Cl)ccc1CNC(=O)Nc1ccc2cc1OCCOCCNc1ccn3ncc-2c3n1` [compound 23], the ΔTm at 10 µM came out at 1.5 °C on TOPKA, 0.6 °C at PDK4A and 2 °C on FLT1A.

With `Cc1cc(Br)ccc1CNC(=O)Nc1ccc2cc1OCCOCCNc1ccn3ncc-2c3n1` [compound 24], the ΔTm at 10 µM at NQO2A was -1.9 °C; at BRPF1B, 1.6 °C.

`Cc1ccc(F)cc1CNC(=O)Nc1ccc2cc1OCCOCCNc1ccn3ncc-2c3n1` [compound 26]: the thermal shift (ΔTm) at 10 µM was -1.5 °C on NQO2A and 1 °C on BRPF1B.

Consider `O=C(NCc1ccccc1C(F)(F)F)Nc1ccc2cc1OCCOCCNc1ccn3ncc-2c3n1` [compound 27], for which the ΔTm at 10 µM is -4.1 °C on NQO2A and 1.9 °C at BRPF1B.

Consider `O=C(NCc1ccc(C(F)(F)F)cc1)Nc1ccc2cc1OCCOCCNc1ccn3ncc-2c3n1` [compound 28], for which the results for the shift in melting temperature (ΔTm) at 10 µM at NQO2A and at BRPF1B were -2.7 °C and 2.2 °C, respectively.

`COc1ccccc1CNC(=O)Nc1ccc2cc1OCCOCCNc1ccn3ncc-2c3n1` [compound 29]: the shift in melting temperature (ΔTm) at 10 µM at NQO2A is -0.5 °C; at BRPF1B it was -0.1 °C.

As to `COc1cccc(CNC(=O)Nc2ccc3cc2OCCOCCNc2ccn4ncc-3c4n2)c1` [compound 30], the shift in melting temperature (ΔTm) at 10 µM at NQO2A was -0.5 °C; at BRPF1B, 0.2 °C.

With `COc1ccc(CNC(=O)Nc2ccc3cc2OCCOCCNc2ccn4ncc-3c4n2)cc1` [compound 31], the figures for the thermal shift (ΔTm) at 10 µM on NQO2A and at BRPF1B were -0.6 °C and 1 °C, respectively.

On to `COc1ccc(CNC(=O)Nc2ccc3cc2OCCOCCNc2ccn4ncc-3c4n2)cc1F` [compound 32], for which the thermal shift (ΔTm) at 10 µM is -2.8 °C at NQO2A and 1.5 °C on BRPF1B.

In the case of `COc1cc(CNC(=O)Nc2ccc3cc2OCCOCCNc2ccn4ncc-3c4n2)ccc1F` [compound 33], the values for the shift in melting temperature (ΔTm) at 10 µM on NQO2A and at BRPF1B were -1.5 °C and 1.2 °C, respectively.

Consider `C[C@H](NC(=O)Nc1ccc2cc1OCCOCCNc1ccn3ncc-2c3n1)c1ccccc1` [compound 34], for which the shift in melting temperature (ΔTm) at 10 µM on NQO2A was -0.5 °C; at BRPF1B, 0.5 °C.

On to `CN1CCN(C(=O)Nc2ccc3cc2OCCOCCNc2ccn4ncc-3c4n2)CC1` [compound 35], for which the ΔTm at 10 µM is -0.4 °C on TOPKA, 0.5 °C at PDK4A and 4.4 °C on FLT1A.
